# From publication PMC7738205 (Cell Cycle, 2020)
# “Also recorded” adds a separate entry of the source.
# Assays:
# [1] = system: SARS-CoV-2 strain USA-WA1/2020; assay type: cell-based; conditions: dNHBE cells, conversion of 5.55 µM
# [2] = system: human bronchial epithelial lining cells; test: Cytotoxicity in human bronchial epithelial lining cells; assay type: cell-based
# MA-104 cells = conditions: visual or neutral red reads
# [3] = system: human epithelial airway cells; conditions: 1 µM dose; cited from earlier work
Structure (SMILES),average EC90 expressed [1] [µg/mL],observed cytotoxicity at highest dose given ([2]; 30 µM),cytotoxicity to MA-104 cells (MA-104 cells),toxicity in human epithelial airway cells [3],observed cytotoxicity at highest dose given ([2]; 1.66 µM)
CC#C[C@]1(O)CCC2C3CCC4=CC(=O)CCC4=C3[C@@H](c3ccc4c(c3)OCO4)C[C@@]21C (some centres unmarked) [PT150],3.13,No cytotoxicity; also recorded: no observed cytotoxicities,significant cytotoxicity,absence of toxicity,–
"CCC(CC)COC(=O)[C@H](C)N[P@](=O)(OC[C@H]1O[C@@](C#N)(c2ccc3c(N)ncnn23)[C@H](O)[C@@H]1O)Oc1ccccc1 [Remdesivir, reference compound]",–,–,–,–,no observed cytotoxicities
